Measured values as given in BigSolDB 2.1.

O=C(O)c1ccccc1
solubility (mole fraction)
Conditions	in chloroform	in cyclohexane	in ethanol	in n-heptane	in n-pentane	in toluene
278.15 K	0.074	–	0.128	0.005	0.004	0.035
283.15 K	0.086	0.006	0.139	0.006	0.005	0.043
293.15 K	0.114	0.009	0.166	0.01	0.007	0.062
303.15 K	0.151	0.015	0.196	0.015	0.011	0.089
313.15 K	0.196	0.025	0.234	0.022	–	0.128
323.15 K	0.253	0.039	0.276	0.033	–	0.178
